Measurements: patent US20240336655A1, “AMPHIPHILIC PEPTIDES FOR NUCLEIC ACID AND PROTEIN DELIVERY” (AJK BIOPHARMACEUTICAL, LLC, priority 2021, published 2024)
Peptide text beside a SMILES is read from it.

Tests used:
siRNA = assay: Serum stability / protection of siRNA against enzymatic degradation in fetal bovine serum; format: in vitro ADME; conditions: 24 hours of exposure to serum, N/P ratio of 40, compared to siRNA exposed to saline
Description: Serum Stability. In order to determine the capability of the complexes to protect the siRNA against enzymatic degradation, Inventors exposed different study groups to a diluted fetal bovine serum (FBS) solution, with “naked” siRNA as a positive control, and siRNA exposed to saline as a negative control according to the previously reported procedure (Mozaffari S, Bousoik E, Amirrad F, Lamboy R, Coyle M, Hall R, Alasmari A, Mahdipoor P, Parang K, Montazeri Aliabadi H. Amphiphilic Peptides for Efficient siRNA Delivery. Polymers (Basel). 2019; 11(4) doi: 10.3390/polym11040703. PubMed PMID: 30999603; PMCID: PMC6523661).
(§1) The binding affinity for [CR4W4C] […] The toxicity of the peptides was evaluated in triple-negative breast cancer (TNBC) cells MDA-MB-231 (as a model cancer cell line) with peptide alone and siRNA complexes, and CCK assay to quantify cell viability after 48 hours.
Protection of siRNA against Enzymatic Degradation. […] After the incubation, complexes were dissociated using a 2:3 mixture of heparin (5% solution in normal saline) and EDTA (0.5 mM), and the samples were analyzed using a 1% agarose gel (with 1 μg/mL ethidium bromide) at 70 V for 20 minutes. UV illumination (Gel-Doc system, Bio-Rad; Hercules, CA) was used to visualize the gel, and the intensity of the bands (representing remaining intact siRNA) was quantified by Image J software (FIG. 8).

MDA-MB-231 cells = assay: Cytotoxicity of peptides and peptide/siRNA complexes in MDA-MB-231 cells (MTT / CCK); format: cell-based, human; conditions: as compared to commercial agent lipofectamine
Method: as §1
The human breast cancer cell line MDA-MB-231 was purchased from American Type Culture Collection (ATCC; Manassas, VA). MDA-MB-231 was cultured in the DMEM medium. The media was supplemented with 10% (v/v) fetal bovine serum, 100 U/mL penicillin, and 100 μg/ml streptomycin. Cells were maintained in the normal condition of 37° C. and 5% CO2 under a humidified atmosphere and were sub-cultured when 80-100% confluent.
Toxicity of the Peptide/siRNA Complexes: The effect of peptides on the viability of human cell lines was evaluated by exposing the MDA-MB-231 cell lines (FIGS. 9-12) to different concentrations of peptide solution and exposing the cells to peptide/siRNA complexes prepared with different peptides at a various peptide:siRNA ratios according to the previously reported procedure by us (Mozaffari S, Bousoik E, Amirrad F, Lamboy R, Coyle M, Hall R, Alasmari A, Mahdipoor P, Parang K, Montazeri Aliabadi H. Amphiphilic Peptides for Efficient siRNA Delivery. Polymers (Basel). 2019; 11(4). doi: 10.3390/polym11040703. PubMed PMID: 30999603; PMCID: PMC6523661). […]

Row | SMILES | protection of siRNA in the presence of serum (siRNA) | toxicity (MDA-MB-231 cells)
1 | N=C(N)NCCC[C@@H]1NC(=O)[C@H](CCCNC(=N)N)NC(=O)[C@H](CCCNC(=N)N)NC(=O)[C@H](CCCNC(=N)N)NC(=O)[C@H](CCCNC(=N)N)NC(=O)[C@@H](NC(=O)[C@H](Cc2c[nH]c3ccccc23)NC(=O)[C@H](Cc2c[nH]c3ccccc23)NC(=O)[C@H](Cc2c[nH]c3ccccc23)NC(=O)[C@@H](N)Cc2c[nH]c3ccccc23)CSSC[C@@H](C(=O)N[C@@H](Cc2c[nH]c3ccccc23)C(=O)N[C@@H](Cc2c[nH]c3ccccc23)C(=O)N[C@@H](Cc2c[nH]c3ccccc23)C(=O)N[C@@H](Cc2c[nH]c3ccccc23)C(=O)O)NC1=O [W4[CR5C]W4] (HELM PEPTIDE1{W.W.W.W.C.R.R.R.R.R.C.W.W.W.W}$PEPTIDE1,PEPTIDE1,5:R3-11:R3$$$V2.0; N-terminus and C-terminus assumed) | protect siRNA completely | without toxicity
2 | N=C(N)NCCC[C@@H]1NC(=O)[C@H](CCCNC(=N)N)NC(=O)[C@H](CCCNC(=N)N)NC(=O)[C@H](CCCNC(=N)N)NC(=O)[C@@H](N)CSSC[C@@H](C(=O)O)NC(=O)[C@H](Cc2c[nH]c3ccccc23)NC(=O)[C@H](Cc2c[nH]c3ccccc23)NC(=O)[C@H](Cc2c[nH]c3ccccc23)NC(=O)[C@H](Cc2c[nH]c3ccccc23)NC1=O [[CR4W4C]] (HELM PEPTIDE1{C.R.R.R.R.W.W.W.W.C}$PEPTIDE1,PEPTIDE1,1:R3-10:R3$$$V2.0; N-terminus and C-terminus assumed) | protect siRNA completely | without toxicity
